The values that follow come from patent publication US12653811B2 (CLOSED LOOP MEDICINE LTD, priority 2020, dated 2026).

Each structure is given as a SMILES string.

For series [1] the following is noted: cited from earlier work.
In series [2] the test system is patients with primary hypertension and inadequate BP control. Kind of series: Precision dosing trial of amlodipine with home blood pressure and e-diary side effects (Example 1).

For `CCOC(=O)C1=C(COCCN)NC(C)=C(C(=O)OC)C1c1ccccc1Cl` (stereo not shown) [amlodipine], in series [1] (FIG. 1, Williams et al 1988), the “dose linearity of pharmacokinetics” value is listed as “linear across a wide range of doses”. In addition, the “increase in total exposure” value in series [1] (elderly) is listed as “up to 60%”. For the same compound, the “variance in average amlodipine blood levels between subjects” value in series [1] (steady-state, same dose) is “up to 30%”. The “toxic related side effects leading to treatment discontinuation” value in series [2] (during the trial to date) is “no toxic related side effects leading to treatment discontinuation were observed”. In addition, the “end mean DBP” value in series [2] (end of study, baseline mean DBP 88 mmHg, 109 patients begun, 39 completed, linear mixed model estimate) is given as 81 mmHg. Besides, the “end mean SBP” value in series [2] (end of study, baseline mean SBP 146 mmHg, 109 patients begun, 39 completed, linear mixed model estimate) was 133 mmHg. Besides, in series [2] (single patient, final dose of 10 mg, VAS 0-100 scale (1-25 mild, 26-50 moderate)), the “side effects (oedema) by VAS score” value was “mild to moderate”.
